Laboratory results published in ChEMBL document CHEMBL1201861, “Genomics of Drug Sensitity in Cancer screening data, Wellcome Trust Sanger Institute”.

Legend:
HN = experiment: cells; type: functional, cell-based; conditions: Homo sapiens
Description: SANGER: Inhibition of human HN cell growth in a cell viability assay.

HPAF-II = experiment: cells; type: functional, cell-based; conditions: Homo sapiens
Description: SANGER: Inhibition of human HPAF-II cell growth in a cell viability assay.

T98G = experiment: cells; type: functional, cell-based; conditions: Homo sapiens
Description: SANGER: Inhibition of human T98G cell growth in a cell viability assay.

DBTRG-05MG = experiment: cells; type: functional, cell-based; conditions: Homo sapiens
Description: SANGER: Inhibition of human DBTRG-05MG cell growth in a cell viability assay.

EW-24 = experiment: cells; type: functional, cell-based, Homo sapiens; conditions: Homo sapiens, EW-24
Description: SANGER: Inhibition of human EW-24 cell growth in a cell viability assay.

NCI-H1693 = experiment: cells; type: functional, cell-based; conditions: Homo sapiens
Description: SANGER: Inhibition of human NCI-H1693 cell growth in a cell viability assay.

LU-99A = experiment: cells; type: functional, cell-based; conditions: Homo sapiens
Description: SANGER: Inhibition of human LU-99A cell growth in a cell viability assay.

ST486 = experiment: SANGER: Inhibition of human ST486 cell growth in a cell viability assay.; type: functional, cell-based; conditions: Homo sapiens, ST486
COR-L23 = experiment: cells; type: functional, cell-based; conditions: Homo sapiens
Description: SANGER: Inhibition of human COR-L23 cell growth in a cell viability assay.

CAL-85-1 = experiment: cells; type: functional, cell-based; conditions: Homo sapiens
Description: SANGER: Inhibition of human CAL-85-1 cell growth in a cell viability assay.

PC-14 = experiment: cells; type: functional, cell-based; conditions: Homo sapiens
Description: SANGER: Inhibition of human PC-14 cell growth in a cell viability assay.

NCI-H1993 = experiment: cells; type: functional, cell-based; conditions: Homo sapiens
Description: SANGER: Inhibition of human NCI-H1993 cell growth in a cell viability assay.

COLO-792 = experiment: cells; type: functional, cell-based; conditions: Homo sapiens
Description: SANGER: Inhibition of human COLO-792 cell growth in a cell viability assay.

786-0 = experiment: cells; type: functional, cell-based; conditions: Homo sapiens
Description: SANGER: Inhibition of human 786-0 cell growth in a cell viability assay.

KYSE-180 = experiment: cells; type: functional, cell-based; conditions: Homo sapiens
Description: SANGER: Inhibition of human KYSE-180 cell growth in a cell viability assay.

KU-19-19 = experiment: cells; type: functional, cell-based; conditions: Homo sapiens
Description: SANGER: Inhibition of human KU-19-19 cell growth in a cell viability assay.

SW756 = experiment: cells; type: functional, cell-based; conditions: Homo sapiens
Description: SANGER: Inhibition of human SW756 cell growth in a cell viability assay.

SW626 = experiment: cells; type: functional, cell-based; conditions: Homo sapiens
Description: SANGER: Inhibition of human SW626 cell growth in a cell viability assay.

Panc1005 = experiment: cells; type: functional, cell-based; conditions: Homo sapiens
Description: SANGER: Inhibition of human PANC-10-05 cell growth in a cell viability assay.

MIA PaCa-2 = experiment: cells; type: functional, cell-based; conditions: Homo sapiens
Description: SANGER: Inhibition of human MIA-PaCa-2 cell growth in a cell viability assay.

JIYOYE = experiment: cells; type: functional, cell-based, Homo sapiens; conditions: Homo sapiens, JIYOYE
Description: SANGER: Inhibition of human JiyoyeP-2003 cell growth in a cell viability assay.

SK-MEL3 = experiment: cells; type: functional, cell-based, SK-MEL-3; conditions: Homo sapiens
Description: SANGER: Inhibition of human SK-MEL-3 cell growth in a cell viability assay.

Daoy = experiment: cells; type: functional, cell-based; conditions: Homo sapiens
Description: SANGER: Inhibition of human Daoy cell growth in a cell viability assay.

D-392MG = experiment: cells; type: functional, cell-based; conditions: Homo sapiens
NCI-H1963 = experiment: cells; type: functional, cell-based, Homo sapiens; conditions: Homo sapiens, NCI-H1963
Description: SANGER: Inhibition of human NCI-H1963 cell growth in a cell viability assay.

HT-29 = experiment: cells; type: functional, cell-based; conditions: Homo sapiens
Description: SANGER: Inhibition of human HT-29 cell growth in a cell viability assay.

LCLC-103H cell line = experiment: cells; type: functional, cell-based; conditions: Homo sapiens
Description: SANGER: Inhibition of human LCLC-103H cell growth in a cell viability assay.

MEL-HO = experiment: cells; type: functional, cell-based; conditions: Homo sapiens
Description: SANGER: Inhibition of human MEL-HO cell growth in a cell viability assay.

8305C = experiment: cells; type: functional, cell-based; conditions: Homo sapiens
Description: SANGER: Inhibition of human 8305C cell growth in a cell viability assay.

SAOS-2 = experiment: cells; type: functional, cell-based; conditions: Homo sapiens
Description: SANGER: Inhibition of human Saos-2 cell growth in a cell viability assay.

SK-MEL-30 = experiment: cells; type: functional, cell-based; conditions: Homo sapiens
Description: SANGER: Inhibition of human SK-MEL-30 cell growth in a cell viability assay.

NCI-H1573 = experiment: cells; type: functional, cell-based; conditions: Homo sapiens
Description: SANGER: Inhibition of human NCI-H1573 cell growth in a cell viability assay.

NCI-H1703 = experiment: cells; type: functional, cell-based; conditions: Homo sapiens
Description: SANGER: Inhibition of human NCI-H1703 cell growth in a cell viability assay.

EFO-21 = experiment: cells; type: functional, cell-based; conditions: Homo sapiens
Description: SANGER: Inhibition of human EFO-21 cell growth in a cell viability assay.

C3A = experiment: cells; type: functional, cell-based; conditions: Homo sapiens
Description: SANGER: Inhibition of human C3A cell growth in a cell viability assay.

KP-4 = experiment: cells; type: functional, cell-based; conditions: Homo sapiens
Description: SANGER: Inhibition of human KP-4 cell growth in a cell viability assay.

EFM-19 = experiment: cells; type: functional, cell-based; conditions: Homo sapiens
Description: SANGER: Inhibition of human EFM-19 cell growth in a cell viability assay.

U2OS = experiment: cells; type: functional, cell-based, U-2-OS; conditions: Homo sapiens
Description: SANGER: Inhibition of human U-2-OS cell growth in a cell viability assay.

S-117 = experiment: cells; type: functional, cell-based; conditions: Homo sapiens
Description: SANGER: Inhibition of human S-117 cell growth in a cell viability assay.

NCI-H2009 = experiment: cells; type: functional, cell-based; conditions: Homo sapiens
Description: SANGER: Inhibition of human NCI-H2009 cell growth in a cell viability assay.

NCI-H748 = experiment: cells; type: functional, cell-based, Homo sapiens; conditions: Homo sapiens, NCI-H748
Description: SANGER: Inhibition of human NCI-H748 cell growth in a cell viability assay.

HOP-92 = experiment: cells; type: functional, cell-based; conditions: Homo sapiens
Description: SANGER: Inhibition of human HOP-92 cell growth in a cell viability assay.

HEC-1 = experiment: cells; type: functional, cell-based; conditions: Homo sapiens
Description: SANGER: Inhibition of human HEC-1 cell growth in a cell viability assay.

Hs-578T = experiment: cells; type: functional, cell-based; conditions: Homo sapiens
Description: SANGER: Inhibition of human Hs-578-T cell growth in a cell viability assay.

EVSA-T = experiment: cells; type: functional, cell-based, Homo sapiens; conditions: Homo sapiens, EVSA-T
Description: SANGER: Inhibition of human EVSA-T cell growth in a cell viability assay.

DOK = experiment: cells; type: functional, cell-based; conditions: Homo sapiens
Description: SANGER: Inhibition of human DOK cell growth in a cell viability assay.

C-33-A = experiment: cells; type: functional, cell-based; conditions: Homo sapiens
Description: SANGER: Inhibition of human C-33-A cell growth in a cell viability assay.

KYSE-450 = experiment: cells; type: functional, cell-based; conditions: Homo sapiens
Description: SANGER: Inhibition of human KYSE-450 cell growth in a cell viability assay.

MKN-28 = experiment: cells; type: functional, cell-based; conditions: Homo sapiens
Description: SANGER: Inhibition of human MKN28 cell growth in a cell viability assay.

TE-15 = experiment: cells; type: functional, cell-based, Homo sapiens; conditions: Homo sapiens, TE-15
Description: SANGER: Inhibition of human TE-15 cell growth in a cell viability assay.

MDA-MB-361 = experiment: cells; type: functional, cell-based; conditions: Homo sapiens
FaDu = experiment: cells; type: functional, cell-based; conditions: Homo sapiens
Description: SANGER: Inhibition of human FADU cell growth in a cell viability assay.

Huh-7 = experiment: cells; type: functional, cell-based; conditions: Homo sapiens
Description: SANGER: Inhibition of human HuH-7 cell growth in a cell viability assay.

Ca-Ski = experiment: cells; type: functional, cell-based; conditions: Homo sapiens
Description: SANGER: Inhibition of human Ca-Ski cell growth in a cell viability assay.

HCC1569 = experiment: cells; type: functional, cell-based; conditions: Homo sapiens
Description: SANGER: Inhibition of human HCC1569 cell growth in a cell viability assay.

RL = experiment: cells; type: functional, cell-based, Homo sapiens; conditions: Homo sapiens, RL
Description: SANGER: Inhibition of human RL cell growth in a cell viability assay.

NCI-H1437 = experiment: cells; type: functional, cell-based; conditions: Homo sapiens
Description: SANGER: Inhibition of human NCI-H1437 cell growth in a cell viability assay.

SW780 = experiment: cells; type: functional, cell-based; conditions: Homo sapiens
Description: SANGER: Inhibition of human SW780 cell growth in a cell viability assay.

CPC-N = experiment: cells; type: functional, cell-based, Homo sapiens; conditions: Homo sapiens, CPC-N
Description: SANGER: Inhibition of human CPC-N cell growth in a cell viability assay.

M14 = experiment: cells; type: functional, cell-based; conditions: Homo sapiens
Description: SANGER: Inhibition of human M14 cell growth in a cell viability assay.

RO82-W-1 = experiment: cells; type: functional, cell-based; conditions: Homo sapiens
Description: SANGER: Inhibition of human RO82-W-1 cell growth in a cell viability assay.

UACC-893 = experiment: cells; type: functional, cell-based; conditions: Homo sapiens
Description: SANGER: Inhibition of human UACC-893 cell growth in a cell viability assay.

## COc1ccc(-c2cc3nccn3c(Nc3ncccc3C(N)=O)n2)cc1OC
HN
  IC50: > 8 µM
HPAF-II
  IC50: > 8 µM
T98G
  IC50: > 8 µM
DBTRG-05MG
  IC50: > 8 µM
EW-24
  IC50: > 8 µM
NCI-H1693
  IC50: > 8 µM
LU-99A
  IC50: > 8 µM
ST486
  IC50: 0.576 µM
COR-L23
  IC50: 2.38 µM
CAL-85-1
  IC50: 3.33 µM
PC-14
  IC50: > 8 µM
NCI-H1993
  IC50: > 8 µM
COLO-792
  IC50: > 8 µM
786-0
  IC50: 1.36 µM
KYSE-180
  IC50: 5.62 µM
KU-19-19
  IC50: > 8 µM
SW756
  IC50: > 8 µM
SW626
  IC50: > 8 µM
Panc1005
  IC50: 4.15 µM
MIA PaCa-2
  IC50: 5.4 µM
JIYOYE
  IC50: 1.55 µM
SK-MEL3
  IC50: 5.06 µM
Daoy
  IC50: > 8 µM
D-392MG
  IC50: > 8 µM
NCI-H1963
  IC50: > 8 µM
HT-29
  IC50: 2.81 µM
LCLC-103H cell line
  IC50: 3.08 µM
MEL-HO
  IC50: 2.95 µM
8305C
  IC50: 2.42 µM
SAOS-2
  IC50: > 8 µM
SK-MEL-30
  IC50: > 8 µM
NCI-H1573
  IC50: > 8 µM
NCI-H1703
  IC50: > 8 µM
EFO-21
  IC50: > 8 µM
C3A
  IC50: 6.53 µM
KP-4
  IC50: > 8 µM
EFM-19
  IC50: > 8 µM
U2OS
  IC50: > 8 µM
S-117
  IC50: > 8 µM
NCI-H2009
  IC50: > 8 µM
NCI-H748
  IC50: > 8 µM
HOP-92
  IC50: > 8 µM
HEC-1
  IC50: > 8 µM
Hs-578T
  IC50: > 8 µM
EVSA-T
  IC50: > 8 µM
DOK
  IC50: > 8 µM
C-33-A
  IC50: 2.53 µM
KYSE-450
  IC50: 2.32 µM
MKN-28
  IC50: 4.49 µM
TE-15
  IC50: 1.28 µM
MDA-MB-361
  IC50: > 8 µM
FaDu
  IC50: > 8 µM
Huh-7
  IC50: > 8 µM
Ca-Ski
  IC50: 4.55 µM
HCC1569
  IC50: > 8 µM
RL
  IC50: > 8 µM
NCI-H1437
  IC50: 1.8 µM
SW780
  IC50: > 8 µM
CPC-N
  IC50: > 8 µM
M14
  IC50: > 8 µM
RO82-W-1
  IC50: > 8 µM
UACC-893
  IC50: > 8 µM

## OC[C@H](Cc1ccccc1)Nc1nc(Oc2ccc3c(c2)CCC3)nc2c1ncn2Cc1ccc(-c2ccccc2)cc1
HN
  IC50: 8.17 µM
HPAF-II
  IC50: > 10.2 µM
T98G
  IC50: > 10.2 µM
DBTRG-05MG
  IC50: > 10.2 µM
EW-24
  IC50: > 10.2 µM
NCI-H1693
  IC50: 7.05 µM
LU-99A
  IC50: > 10.2 µM
ST486
  IC50: > 10.2 µM
COR-L23
  IC50: 6.89 µM
CAL-85-1
  IC50: 4.45 µM
PC-14
  IC50: > 10.2 µM
NCI-H1993
  IC50: > 10.2 µM
COLO-792
  IC50: 4.79 µM
786-0
  IC50: 1.26 µM
KYSE-180
  IC50: > 10.2 µM
KU-19-19
  IC50: > 10.2 µM
SW756
  IC50: > 10.2 µM
SW626
  IC50: 8.3 µM
Panc1005
  IC50: > 10.2 µM
MIA PaCa-2
  IC50: 8.88 µM
JIYOYE
  IC50: > 10.2 µM
SK-MEL3
  IC50: > 10.2 µM
Daoy
  IC50: 2.93 µM
D-392MG
  IC50: > 10.2 µM
NCI-H1963
  IC50: > 10.2 µM
HT-29
  IC50: 8.45 µM
LCLC-103H cell line
  IC50: > 10.2 µM
MEL-HO
  IC50: 8.39 µM
8305C
  IC50: 2.76 µM
SAOS-2
  IC50: > 10.2 µM
SK-MEL-30
  IC50: 8.89 µM
NCI-H1573
  IC50: > 10.2 µM
NCI-H1703
  IC50: > 10.2 µM
EFO-21
  IC50: > 10.2 µM
C3A
  IC50: > 10.2 µM
KP-4
  IC50: > 10.2 µM
EFM-19
  IC50: > 10.2 µM
U2OS
  IC50: > 10.2 µM
S-117
  IC50: 4.88 µM
NCI-H2009
  IC50: > 10.2 µM
NCI-H748
  IC50: > 10.2 µM
HOP-92
  IC50: > 10.2 µM
HEC-1
  IC50: > 10.2 µM
Hs-578T
  IC50: > 10.2 µM
EVSA-T
  IC50: > 10.2 µM
DOK
  IC50: > 10.2 µM
C-33-A
  IC50: > 10.2 µM
KYSE-450
  IC50: 8.47 µM
MKN-28
  IC50: 1.73 µM
TE-15
  IC50: > 10.2 µM
MDA-MB-361
  IC50: > 10.2 µM
FaDu
  IC50: > 10.2 µM
Huh-7
  IC50: > 10.2 µM
Ca-Ski
  IC50: > 10.2 µM
HCC1569
  IC50: > 10.2 µM
RL
  IC50: > 10.2 µM
NCI-H1437
  IC50: 6.89 µM
SW780
  IC50: > 10.2 µM
CPC-N
  IC50: > 10.2 µM
M14
  IC50: > 10.2 µM
RO82-W-1
  IC50: > 10.2 µM
UACC-893
  IC50: > 10.2 µM
